Measurements as given in the supplement of paper PMC10307832.

What was measured:
Assay in all cases: relative viability (nuclei count vs DMSO), 5 days (fraction); higher = more cells survive
[1] = compound: C1/C(=C\C2=CC=CS2)/C(=O)/C(=C/C3=CC=CS3)/C1 + CC1(C)CCC(c2ccc(Cl)cc2)=C(CN2CCN(c3ccc(C(=O)NS(=O)(=O)c4ccc(N[C@H](CCN5CCOCC5)CSc5ccccc5)c(S(=O)(=O)C(F)(F)F)c4)cc3)CC2)C1 [Navitoclax] (partner 0.5 µM)
Procedure, shortened: (§1)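 Lung cancer cell lines, seeded in 1536-well plates, were treated the following day by pin tool with a single drug or with five library-drug doses (not always all listed) in √10 steps on top of a fixed anchor-drug dose. Cells were fixed and nuclei stained in one step after 5 days, and nuclei were counted. Relative viability is the nuclei count for treated wells divided by that for vehicle wells, reported as medians of duplicate plates.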

[2] = compound: C1/C(=C\C2=CC=CS2)/C(=O)/C(=C/C3=CC=CS3)/C1 + COc1cc2c(Oc3ccc(NC(=O)C4(C(=O)Nc5ccc(F)cc5)CC4)cc3F)ccnc2cc1OCCCN1CCOCC1 [Foretinib] (partner 0.25 µM)
Procedure, shortened: as §1

TPCA-1 + Alpelisib = compound: C1=CC(=CC=C1C2=CC(=C(S2)NC(=O)N)C(=O)N)F [TPCA-1] + Cc1nc(NC(=O)N2CCC[C@H]2C(N)=O)sc1-c1ccnc(C(C)(C)C(F)(F)F)c1 [Alpelisib] (partner 2 µM)
Procedure, shortened: as §1

Lestaurtinib + Lapatinib = compound: C[C@]12O[C@H](C[C@]1(O)CO)n1c3ccccc3c3c4c(c5c6ccccc6n2c5c31)CNC4=O [Lestaurtinib] + CS(=O)(=O)CCNCc1ccc(-c2ccc3ncnc(Nc4ccc(OCc5cccc(F)c5)c(Cl)c4)c3c2)o1 [Lapatinib] (partner 2 µM)
Procedure, shortened: as §1

UMC-11
relative viability ([1]; first compound 0.2 µM): 0.302 | relative viability ([1]; first compound 0.6325 µM): 0.362 | relative viability ([1]; first compound 2 µM): 0.307 | relative viability ([1]; first compound 20 µM): 0.307 | relative viability ([2]; first compound 0.2 µM): 0.993 | relative viability ([2]; first compound 0.6325 µM): 1.12 | relative viability ([2]; first compound 20 µM): 1.03 | relative viability (TPCA-1 + Alpelisib; first compound 0.04 µM): 0.988 | relative viability (TPCA-1 + Alpelisib; first compound 0.1265 µM): 0.946 | relative viability (TPCA-1 + Alpelisib; first compound 0.4 µM): 1.05 | relative viability (TPCA-1 + Alpelisib; first compound 1.265 µM): 0.96 | relative viability (TPCA-1 + Alpelisib; first compound 4 µM): 0.731 | relative viability (Lestaurtinib + Lapatinib; first compound 0.005 µM): 1.01 | relative viability (Lestaurtinib + Lapatinib; first compound 0.01581 µM): 0.921 | relative viability (Lestaurtinib + Lapatinib; first compound 0.05 µM): 0.65 | relative viability (Lestaurtinib + Lapatinib; first compound 0.1581 µM): 0.305 | relative viability (Lestaurtinib + Lapatinib; first compound 0.5 µM): 0.196
